Measurements taken from ChEMBL document CHEMBL4419121, “Tetrahydropyridopyrazines modulators of gpr6” (2018).

Key:
Rattus norvegicus = assay: Reversal of haloperidol-induced catalepsy in Sprague-Dawley rat model of Parkinson's disease assessed as reduction in catalepsy intensity index at 0.1 mg/kg, ip dosed along with haloperidol and measured after 30 mins relative to untreated control; format: functional; set-up: scale not given: the % may be the effect or the level left
[1] = target: T1, G-protein coupled receptor 6 (Homo sapiens, UniProt P46095); assay: Modulation activity at GPR6 receptor (unknown origin) expressed in CHO-K1 cells assessed as inhibition of constitutive cAMP activity incubated for 45 mins in presence of 300 uM IBMX by Perkin Elmer Lance HTRF Ultrac-AMP assay; format: functional, cell-based; settings: cho-k1
T1 sequence (P46095 whole entry): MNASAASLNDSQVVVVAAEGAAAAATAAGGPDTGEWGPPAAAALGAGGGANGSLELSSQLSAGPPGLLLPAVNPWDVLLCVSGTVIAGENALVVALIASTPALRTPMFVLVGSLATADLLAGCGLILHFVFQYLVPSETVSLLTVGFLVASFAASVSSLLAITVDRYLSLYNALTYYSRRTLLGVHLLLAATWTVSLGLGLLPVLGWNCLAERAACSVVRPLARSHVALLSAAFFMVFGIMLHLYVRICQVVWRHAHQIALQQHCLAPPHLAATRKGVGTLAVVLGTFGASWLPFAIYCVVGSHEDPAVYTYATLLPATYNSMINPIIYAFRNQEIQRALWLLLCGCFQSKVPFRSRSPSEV

[2] = target: T1, G-protein coupled receptor 6; assay: Modulation activity at GPR6 receptor (unknown origin) expressed in CHO-K1 cells assessed as inhibition of constitutive cAMP activity incubated for 45 mins by Perkin Elmer Lance HTRF Ultrac-AMP assay; format: functional, cell-based

SMILES	IC50 [2] [nM]	further results
CC(=O)N1CCc2nc(N3CCC(Oc4ccc(F)cc4F)CC3)c(NC(C)C)nc2C1		Activity (Rattus norvegicus): -5.7%; IC50 [1]: 24.6 nM
CC(C)Nc1nc2c(nc1N1CCC(Oc3ccc(F)cc3F)CC1)C(C)N(S(C)(=O)=O)CC2 (configuration not stated)	98	
COCC(=O)N1CCc2nc(NCC(F)F)c(N3CCC(Oc4ccc(F)cc4F)CC3)nc2C1C (configuration not stated)	68	
COc1ccc(OC2CCN(c3nc4c(nc3NC(C)C)CCN(C(=O)N(C)C)C4)CC2)c(F)c1	16.6	
CC(=O)N1CCc2nc(NC(C)C)c(N3CCC(C(=O)c4cc(Cl)ccc4F)CC3)nc2C1	9.8	
CC(=O)N1CCc2nc(N3CCC(Oc4ccc(F)cc4F)CC3)c(NCC(F)F)nc2C1C (configuration not stated)	178	
COCC(=O)N1CCc2nc(N3CCC(Oc4ccc(F)cc4F)CC3)c(NCC(F)F)nc2C1C (configuration not stated)	208	
CC(C)Nc1nc2c(nc1N1CCC(C(=O)c3cc(Cl)ccc3F)CC1)CCN(C(=O)N(C)C)C2	32.7	
CC1Cc2nc(NCC(F)F)c(N3CCC(Oc4ccc(F)cc4F)CC3)nc2CN1C(=O)N(C)C (configuration not stated)	31.4	
CO[C@H](C)C(=O)N1CCc2nc(N3CCC(Oc4ccc(F)cc4F)CC3)c(NCC(F)F)nc2C1	64	
COCCNC(=O)N1CCc2nc(NC(C)C)c(N3CCC(Oc4ccc(F)cc4F)CC3)nc2C1	14.9	
CC(C)Nc1nc2c(nc1N1CCC(Oc3ccc(F)cc3F)CC1)CN(C(=O)C1CCCO1)CC2 (configuration not stated)	19.5	
CS(=O)(=O)N1CCc2nc(N3CCC(Oc4ccc(F)cc4F)CC3)c(NCC(F)F)nc2C1	57.2	
CC(C)Nc1nc2c(nc1N1CCC(Oc3ccc(F)cc3F)CC1)CCN(C(=O)N(C)C)C2	10.4	
CC(C)Nc1nc2c(nc1N1CCC(Oc3ccc(F)cc3F)CC1)CCN(C(=O)N1CCCC1)C2	391	
CC(=O)N1CCc2nc(NCC(F)F)c(N3CCC(Oc4ccc(F)cc4F)CC3)nc2C1C (configuration not stated)	76	

SMILES	IC50 [2] [nM]	further results
CN1CCc2nc(NC3CC3)c(N3CCC([C@H](F)c4ccc(F)cc4F)CC3)nc2C1	15.2	
CC(C)Nc1nc2c(nc1N1CCC(C(F)c3ccc(F)cc3F)CC1)CN(C(=O)N(C)C)CC2 (configuration not stated)	23.7	
COc1ccc(OC2CCN(c3nc4c(nc3NC3CC3)CCN(C)C4)CC2)c(F)c1	145	
CC(C)Nc1nc2c(nc1N1CCC(Oc3ccc(F)cc3F)CC1)CN(C(=O)CC#N)CC2	18	
CC(=O)N1CCc2nc(N3CCC(C(F)c4ccc(F)cc4F)CC3)c(NC(C)C)nc2C1 (configuration not stated)	13.4	
COCCNC(=O)N1CCc2nc(N3CCC(Oc4ccc(F)cc4F)CC3)c(NC(C)C)nc2C1	29.8	
CC1c2nc(N3CCC(Oc4ccc(F)cc4F)CC3)c(NCC(F)F)nc2CCN1S(C)(=O)=O (configuration not stated)	52	
CC(C)Nc1nc2c(nc1N1CCC(C(=O)c3cc(Cl)ccc3F)CC1)CN(C(=O)N(C)C)CC2	24.9	
CO[C@@H](C)C(=O)N1Cc2nc(N3CCC(Oc4ccc(F)cc4F)CC3)c(NCC(F)F)nc2CC1C (some centres not stated)	20.9	
CC(=O)N1CCc2nc(NC(C)C)c(N3CCC(Oc4ccc(C#N)cc4F)CC3)nc2C1	105	
CC(C)Nc1nc2c(nc1N1CCC(C(=O)c3cc(Cl)ccc3F)CC1)CN(C)CC2	8.8	
COc1ccc(OC2CCN(c3nc4c(nc3NC(C)C)CN(C(=O)N(C)C)CC4)CC2)c(F)c1	35	
CC1Cc2nc(NCC(F)F)c(N3CCC(Oc4ccc(F)cc4F)CC3)nc2CN1C(=O)C(F)F (configuration not stated)	22.1	
CC1Cc2nc(NCC(F)F)c(N3CCC(Oc4ccc(F)cc4F)CC3)nc2CN1C(=O)C1CC1 (configuration not stated)	23.9	
CC(=O)N1CCc2nc(NC(C)C)c(N3CCC(Oc4ccc(F)cc4F)CC3)nc2C1	9.5	IC50 [1]: 73.7 nM

Continued by falling IC50 [2], values first:

IC50 [2] [nM]	SMILES	further results
126	CC1c2nc(N3CCC(Oc4ccc(F)cc4F)CC3)c(NCC(F)F)nc2CCN1C(=O)C1CC1 (configuration not stated)	
88	CC(=O)N1CCc2nc(NC(C)C)c(N3CCC(Oc4ccc(F)cc4F)CC3)nc2C1C (configuration not stated)	
87	CC1c2nc(NCC(F)F)c(N3CCC(Oc4ccc(F)cc4F)CC3)nc2CCN1S(C)(=O)=O (configuration not stated)	
26.9	CN(C)C(=O)N1CCc2nc(N3CCC(Oc4ccc(F)cc4F)CC3)c(NCC(F)F)nc2C1	
26.6	COc1ccc(OC2CCN(c3nc4c(nc3NC(C)C)CCN(C)C4)CC2)c(F)c1	
26.5	CN1CCc2nc(NC3CC3)c(N3CCC([C@@H](F)c4ccc(F)cc4F)CC3)nc2C1	
23	COCC(=O)N1Cc2nc(N3CCC(Oc4ccc(F)cc4F)CC3)c(NCC(F)F)nc2CC1C (configuration not stated)	
19.9	COc1ccc(OC2CCN(c3nc4c(nc3NC3CCC3)CN(C(C)=O)CC4)CC2)c(F)c1	
18.5	CO[C@H](C)C(=O)N1Cc2nc(N3CCC(Oc4ccc(F)cc4F)CC3)c(NCC(F)F)nc2CC1C (some centres not stated)	
17.9	CC(C)Nc1nc2c(nc1N1CCC(Oc3ccc(F)cc3F)CC1)CCN(C(=O)C1CCCO1)C2 (configuration not stated)	
16.8	COC(C)C(=O)N1CCc2nc(N3CCC(Oc4ccc(F)cc4F)CC3)c(NC(C)C)nc2C1 (configuration not stated)	
13.8	COc1ccc(OC2CCN(c3nc4c(nc3NC3CCC3)CCN(C(=O)N(C)C)C4)CC2)c(F)c1	
9.1	CN(C)C(=O)N1CCc2nc(NCC(F)F)c(N3CCC(Oc4ccc(F)cc4F)CC3)nc2C1	
6.6	CO[C@H](C)C(=O)N1CCc2nc(NCC(F)F)c(N3CCC(Oc4ccc(F)cc4F)CC3)nc2C1	
